Test results published in the CheMixHub viscosity set.
± gives the uncertainty stated by the source.

Test: xn = mol fraction of the nth substance listed
Conditions: 101.33 kPa

COCCOCCOC + CC1COC(=O)O1
viscosity (298.15 K, x1 = 0.021): 2.427 ± 0.028 mPa·s
viscosity (298.15 K, x1 = 0.0421): 2.372 ± 0.027 mPa·s
viscosity (298.15 K, x1 = 0.0759): 2.295 ± 0.026 mPa·s
viscosity (298.15 K, x1 = 0.0976): 2.245 ± 0.026 mPa·s
viscosity (298.15 K, x1 = 0.1779): 2.081 ± 0.024 mPa·s
viscosity (298.15 K, x1 = 0.2468): 1.953 ± 0.023 mPa·s
viscosity (298.15 K, x1 = 0.3441): 1.782 ± 0.021 mPa·s
viscosity (298.15 K, x1 = 0.3815): 1.719 ± 0.02 mPa·s
viscosity (298.15 K, x1 = 0.4148): 1.669 ± 0.02 mPa·s
viscosity (298.15 K, x1 = 0.4853): 1.573 ± 0.019 mPa·s
viscosity (298.15 K, x1 = 0.5455): 1.488 ± 0.018 mPa·s
viscosity (298.15 K, x1 = 0.6708): 1.324 ± 0.016 mPa·s
viscosity (298.15 K, x1 = 0.7643): 1.223 ± 0.015 mPa·s
viscosity (298.15 K, x1 = 0.8341): 1.148 ± 0.014 mPa·s
viscosity (298.15 K, x1 = 0.8725): 1.107 ± 0.014 mPa·s
viscosity (298.15 K, x1 = 0.9275): 1.06 ± 0.013 mPa·s
viscosity (298.15 K, x1 = 0.9513): 1.035 ± 0.013 mPa·s
viscosity (298.15 K, x1 = 0.9796): 1.005 ± 0.012 mPa·s
viscosity (308.15 K, x1 = 0.021): 2 ± 0.023 mPa·s
viscosity (308.15 K, x1 = 0.0421): 1.94 ± 0.022 mPa·s
viscosity (308.15 K, x1 = 0.0759): 1.87 ± 0.022 mPa·s
viscosity (308.15 K, x1 = 0.0976): 1.835 ± 0.021 mPa·s
viscosity (308.15 K, x1 = 0.1779): 1.693 ± 0.02 mPa·s
viscosity (308.15 K, x1 = 0.2468): 1.595 ± 0.019 mPa·s
viscosity (308.15 K, x1 = 0.3441): 1.458 ± 0.017 mPa·s
viscosity (308.15 K, x1 = 0.3815): 1.412 ± 0.017 mPa·s
viscosity (308.15 K, x1 = 0.4148): 1.362 ± 0.016 mPa·s
viscosity (308.15 K, x1 = 0.4853): 1.291 ± 0.016 mPa·s
viscosity (308.15 K, x1 = 0.5455): 1.226 ± 0.015 mPa·s
viscosity (308.15 K, x1 = 0.6708): 1.101 ± 0.014 mPa·s
viscosity (308.15 K, x1 = 0.7643): 1.017 ± 0.013 mPa·s
viscosity (308.15 K, x1 = 0.8341): 0.959 ± 0.012 mPa·s
viscosity (308.15 K, x1 = 0.8725): 0.928 ± 0.012 mPa·s
viscosity (308.15 K, x1 = 0.9275): 0.889 ± 0.011 mPa·s
viscosity (308.15 K, x1 = 0.9513): 0.874 ± 0.011 mPa·s
viscosity (308.15 K, x1 = 0.9796): 0.852 ± 0.011 mPa·s
viscosity (318.15 K, x1 = 0.021): 1.666 ± 0.02 mPa·s
viscosity (318.15 K, x1 = 0.0421): 1.641 ± 0.019 mPa·s
viscosity (318.15 K, x1 = 0.0759): 1.565 ± 0.018 mPa·s
viscosity (318.15 K, x1 = 0.0976): 1.529 ± 0.018 mPa·s
viscosity (318.15 K, x1 = 0.1779): 1.42 ± 0.017 mPa·s
viscosity (318.15 K, x1 = 0.2468): 1.332 ± 0.016 mPa·s
viscosity (318.15 K, x1 = 0.3441): 1.216 ± 0.015 mPa·s
viscosity (318.15 K, x1 = 0.3815): 1.176 ± 0.014 mPa·s
viscosity (318.15 K, x1 = 0.4148): 1.145 ± 0.014 mPa·s
viscosity (318.15 K, x1 = 0.4853): 1.083 ± 0.013 mPa·s
viscosity (318.15 K, x1 = 0.5455): 1.038 ± 0.013 mPa·s
viscosity (318.15 K, x1 = 0.6708): 0.938 ± 0.012 mPa·s
viscosity (318.15 K, x1 = 0.7643): 0.877 ± 0.011 mPa·s
viscosity (318.15 K, x1 = 0.8341): 0.829 ± 0.011 mPa·s
viscosity (318.15 K, x1 = 0.8725): 0.804 ± 0.01 mPa·s
viscosity (318.15 K, x1 = 0.9275): 0.774 ± 0.01 mPa·s
viscosity (318.15 K, x1 = 0.9513): 0.758 ± 0.01 mPa·s
viscosity (318.15 K, x1 = 0.9796): 0.739 ± 0.01 mPa·s
